Laboratory results published in patent publication US20240254140A1, “COMPOUNDS AND THEIR USE IN THE TREATMENT OF BACTERIAL INFECTION” (Hoffmann-La Roche Inc., priority 2021, published 2024).
≈ marks a conversion by molar mass, not a printed value.

Tested on: Escherichia coli ATCC 25922
Assay: Minimal Inhibitory Concentration (MIC) determination, broth microdilution
Assay type: cell-based
Details: ATCC25922; strain Escherichia coli ATCC 25922; broth microdilution per CLSI M07-A10; 18-24 hours at 35±2° C.; lowest concentration for complete growth inhibition
How it was run: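 Broth microdilution followed CLSI M07-A10, with 2-fold compound dilutions and an inoculum from a 0.5 McFarland suspension diluted 1:200 in broth. Plates were incubated 18–24 h at 35±2° C in ambient air. MIC (μg/mL) was the lowest concentration giving no visible growth.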

MIC: 0.125 µg/mL (≈ 0.231 µM)
Structure (SMILES): C[C@H](C(=O)Nc1cc(F)c2c(c1)CC(CNCC[C@@H]1CN(c3cnc4c(n3)NC(=O)CO4)C(=O)O1)C2)N(C)C (stereo partly drawn) [Example 70, (2R)-2-(Dimethylamino)-N-[7-fluoro-2-[[2-[(5R)-2-oxo-3-(3-oxo-4H-pyrazino[2,3-b][1,4]oxazin-6-yl)oxazolidin-5-yl]ethylamino]methyl]indan-5-yl]propanamide]
